Measured values: patent US20180258404A1, “METHODS OF GENERATING NEPHRONS FROM HUMAN PLURIPOTENT STEM CELLS” (THE BRIGHAM AND WOMEN'S HOSPITAL, INC., priority 2015, published 2018)

Tests used:
[1] = tested on: 3D hESC-derived kidney organoids; assay: Nephrotoxicity assay in 3D kidney organoids; format: cell-based, human
Description: Organoids were then fixed with 4% paraformaldehyde (Electron Microscopy Sciences, #RT15710) for 20 minutes for both whole-mount and frozen section immunohistochemistry.
3D kidney organoids were fixed with 4% paraformaldehyde in PBS for 20 minutes at RT in a 96-well plate, then washed three times in PBS. The organoids were then incubated in blocking buffer (0.3% Triton X-100 and 5% normal donkey serum) for 1 hour at RT, then washed three times in PBS. The organoids were incubated with primary antibodies in antibody dilution buffer (0.3% Triton X-100 and 1% BSA in PBS) overnight at 4° C. The organoids were then washed with PBS three times for 1 hour each, with the third washing performed overnight at 4° C. For immunostaining with biotinylated LTL (Vector Labs, #B-1325), a Streptavidin/Biotin Blocking Kit (Vector Labs, #SP-2002) was used according to the manufacturer's protocol. The organoids were incubated with secondary antibodies in antibody dilution buffer for 1 hour at RT, then washed with PBS three times for 30 minutes each. Nuclei were counterstained with DAPI for more than 30 minutes. […]
Total RNA was purified from cells using the RNAeasy MiniKit (Qiagen). […] Quantitative RT-PCR was performed using the iQ5 Multicolor Real-Time PCR Detection System (Bio-Rad). […] Values were calculated by the delta delta CT method. […]

H9 hESCs = assay: Differentiation of hESCs into posterior intermediate mesoderm; format: cell-based, human; settings: added to CHIR in the first step, hESCs
Description: (§1) hPSCs grown on Geltrex were washed once with PBS (Life Technologies, #10010-049) and dissociated into single cells with Accutase ([…] Technologies, #07920). Cells were then plated at a density of 2-2.4×10^4 (H9) or 1-1.4×10^4 (HDF, 2C) cells/cm^2 onto 24-well tissue culture plates (TPP, #92024) coated with 1% Geltrex in ReproFF2 supplemented with the ROCK inhibitor Y27632 (10 μM) (TOCRIS, #1254) and FGF2 (10 ng/ml). After 72 hours, cells (50% confluent) were briefly washed in PBS and then cultured in basic differentiation medium consisting of Advanced RPMI 1640 (Life Technologies, #12633-020) and 1X L-GlutaMAX (Life Technologies, #35050-061) supplemented with CHIR99021 (8-10 μM) (TOCRIS, #4423) for 4 days to induce late primitive streak cells Noggin (5 ng/ml) was also used for hiPSC differentiation in addition to CHIR (10 μM). To induce posterior intermediate mesoderm, cells were then cultured in Advanced RPMI+1X L-GlutaMAX+activin (10 ng/mL) (R&D, #338-AC-050) for 3 days. For induction of nephron progenitor cells, the media was then changed to Advanced RPMI+1X L-GlutaMAX+FGF9 (10 ng/ml) (R&D, #273-F9-025/CF) for 7 days. CHIR (3 μM) was added to the media from day 9 to 11 of differentiation to induce renal vesicles. On day 14, cells were switched to the basic differentiation medium and cultured for an additional 7 to 14 days (total of 21 to 28 days). The medium was replaced every 2 or 3 days. A variety of growth factors and small molecules were tested for differentiation.
PAX2 and LHX1 were not expressed (FIG. 1f), confirming that activin treatment of late primitive streak cells produced posterior and not anterior IM cells.
As the posterior primitive streak is induced by a BMP4 signal gradient, the Inventors hypothesized that CHIR treatment of HDF-α hiPSCs might induce endogenous BMP4 production that promotes differentiation into the posterior primitive streak and subsequently lateral plate mesoderm. […] Optimizing the protocol for individual cell lines based on their endogenous BMP4 production maximized the efficiency of generating posterior IM.

HDF-α hiPSCs = assay: Differentiation of hiPSCs into posterior intermediate mesoderm; format: cell-based, human; settings: noggin 5 ng/mL with CHIR in the first step of differentiation
Description: as §1, with “The medium was replaced every 2 or 3 days. A variety of growth factors and small molecules were tested for differentiation.” left out

Description for podocytes: Modeling glomerular diseases. The Inventors used puromycin and adriamycin which is known to induce FSGS (focal-segmental glomerulosclerosis).

COc1cccc2c1C(=O)c1c(O)c3c(c(O)c1C2=O)C[C@@](O)(C(=O)CO)C[C@@H]3O[C@H]1C[C@H](N)[C@H](O)[C@H](C)O1 [adriamycin]
structures of podocytes (podocytes): the structures of podocytes were disrupted

gentamicin
KIM-1 expression by immunostaining (whole mount and frozen sections) ([1]; gentamicin 5 mg/mL for 48 hours after day 21): clear KIM-1 expression at the luminal surface of LTL+tubules but not in E-cadherin+ tubules
KIM-1 by real-time PCR ([1]; gentamicin 5×10^−4, 5×10^−2, or 5 mg/mL for 48 hours): KIM-1 upregulation by gentamicin in a dose-dependent manner

COc1ccc(C[C@H](N)C(=O)N[C@H]2[C@@H](O)[C@H](n3cnc4c(N(C)C)ncnc43)O[C@@H]2CO)cc1 [puromycin]
structures of podocytes (podocytes): the structures of podocytes were disrupted

B1: noggin: a BMP4 signaling antagonist (protein, UniProt Q13253 28-232, looked up)
Noggin: QHYLHIRPAPSDNLPLVDLIEHPDPIFDPKEKDLNETLLRSLLGGHYDPGFMATSPPEDRPGGGGGAAGGAEDLAELDQLLRQRPSGAMPSEIKGLEFSEGLAQGKKQRLSKKLRRKLQMWLWSQTFCPVLYAWNDLGSRFWPRYVKVGSCFSKRSCSVPEGMVCKPSKSVHLTVLRWRCQRRGGQRCGWIPIQYPIISECKCSC
WT1 expression on day 7 (H9 hESCs): significantly suppressed WT1 expression on day 7
T, TBX6 and FOXF1 expression on day 4 (HDF-α hiPSCs): expressed T and TBX6 but not FOXF1 on day 4
